In patent US20190201419A1, “COMPOUND AND METHOD FOR THE TREATMENT AND DIAGNOSIS OF NEURODEGENERATIVE CONDITIONS” (Swansea University, priority 2013, published 2019):

How the values were obtained:
Islet-1 = Islet-1 expression in Tg[Isl1:GFP] zebrafish embryos; type: in vivo; details: 10 μM
Experimental: (§1) Quantitative PCR, Total RNA was extracted from SN4741. cells and zebrafish treated with the compounds of interest using the RNeasy Mini Kit (Qiagen), 1 μg was treated with RQ1 RNase-free DNase (Promega) and reverse transcribed using SuperScript II Reverse Transcriptase (invitrogen) and random primers (invitrogen) (RT+reaction). Parallel reactions without reverse transcriptase enzyme were done as a control (RT−reaction), and Sybergreen real-time quantitative PCR assays were performed. Expression levels were obtained by normalization with the Value of the housekeeping gene encoding actin obtained for every sample in parallel assays.
(§2) Zebrafish Strain and Maintenance Zebrafish were raised on a 14/10 h day/night cycle and were kept at 28.5 ° C. Islet-1:GFP transgenic embryos were obtained via natural spawning and staged in hours or days post fertilization (hpf and dpt) according to Kimmel et al). Embryos older than 24 hpf were treated with 0.03% phenylthiourea (PTU) to inhibit pigmentation. MO injections were performed using splice site specific zebrafish lxi MO MO injected embryos were immediately dechorionated and transferred to a 96 well plate and exposed to dimethyl sulfoxide (DMSO) treated or ligand treated medium. Compound Exposure. Islet-1:GFP embryos were collected by natural mating and immediately (at 1 cell stage) dechorionated and transferred to a 96 well plate. Each of the compounds tested were obtained as 10 mM stock and diluted in embryo medium to a final concentration of 10 μM, and 200 μL was added to each well. DMSO or propan-2-ol treated embryo medium was taken as control. Ligand solutions were replaced every 12 h with fresh ligand solution prepared in PTU treated embryo medium. Embryos were collected at 48 hpf, fixed for 4 h at room temperature with 4% paraformaldehyde and then washed and kept in PBST. Immunocytochemistry was performed using an anti-GFP antibody and fluorescence was viewed and photographed using a Zeiss Axioplan compound microscope and a Zeiss Axiocam digital camera.

active caspase 3+ cells = test: Active caspase 3+ cells in mouse E11.5 brain primary cultures; type: cell-based; details: for Concentration giving significant difference from vehicle in active caspase 3+ cells: p<0.05; for Number of active caspase-3+ cells: wt cultures, 3β,7α-diHCA, 3βH,7O-CA, 25-HC at 10 μM, toxic acids at low concentrations
Experimental: Primary Brain Cultures. Brains from E11.5 mice were manually dissected, plated on poly-D-lysine (150,000 cells/cm^2) and grown in serum-free N2 media consisting of 1:1 mixture of F12 and DMEM with 10 ng/mL insulin, 100 μg/mL apo-transferrin, 100 μM putrescine, 20 nM progesterone, 30 nM selenium, 6 mg/mL glucose, and 1 mg/mL BSA. Cells were treated for 3 days in vitro (DIV) with the compounds of interest, fixed with 4% PFA and processed for staining using appropriate antibodies.
Antibodies and Detection Procedures. Cells were fixed in 4% PFA, washed in PBS and blocked in 5% normal goat serum/PBS for 1 h at room temperature. Primary antibodies were diluted in PBS (pH 7.4), 0.3% Triton X-100, 1% BSA and incubations were carried out overnight at +4° C. or at room temperature for 2 h. The antibodies used were anti-:BrdU (1:400; Abeam), Islet-1 (1:100: Developmental Studies Hybridoma Bank), cleaved caspase-3 (Aspt 75) (1:100; Cell Signaling Technology), tyrosine hydroxylase (TH; 1:1000; Pel-Freeze) GABA (1:1,000; Sigma), Bm3a (1:250; Millipore), Nkx6.1 (1:200; Novus Biologicals), choline acetyltransferase (ChAT; 1:500; Millipore) and appropriate secondary antibodies (Jackson ImmunoResearch or Alexa). Cells positive for the corresponding marker were counted directly at the microscope at a magnification of 20×. Cells were counted in every well, in eight consecutive fields (going from one side of the well to the other, passing through the center), in three different wells per experiment and in three different experiments per condition. Random pictures of the wells were taken for every condition to document the result, and representative pictures were subsequently selected to represent the quantitative data. Photos were acquired with a Zeiss Axioplan microscope and a Hamamatsu camera C4742-95 using the Openlab software.

abca1 = abca1 expression in zebrafish embryos; type: in vivo; details: 10 μM
Experimental: as §1
Zebrafish Strain and Maintenance Zebrafish were raised on a 14/10 h day/night cycle and were kept at 28.5 ° C. Islet-1:GFP transgenic embryos were obtained via natural spawning and staged in hours or days post fertilization (hpf and dpt) according to Kimmel et al). Embryos older than 24 hpf were treated with 0.03% phenylthiourea (PTU) to inhibit pigmentation. […] Immunocytochemistry was performed using an anti-GFP antibody and fluorescence was viewed and photographed using a Zeiss Axioplan compound microscope and a Zeiss Axiocam digital camera.

Lxrα = biological target: T1, Lxrα (Homo sapiens, UniProt Q13133); test: Lxrα luciferase reporter assay in SN4741 neural cells; type: cell-based, mouse; details: 10 μM, 24 h
T1 construct: expressed in transfected cells; host or cells: SN4741 mouse neuronal cell line
T1 sequence (Q13133 1-447): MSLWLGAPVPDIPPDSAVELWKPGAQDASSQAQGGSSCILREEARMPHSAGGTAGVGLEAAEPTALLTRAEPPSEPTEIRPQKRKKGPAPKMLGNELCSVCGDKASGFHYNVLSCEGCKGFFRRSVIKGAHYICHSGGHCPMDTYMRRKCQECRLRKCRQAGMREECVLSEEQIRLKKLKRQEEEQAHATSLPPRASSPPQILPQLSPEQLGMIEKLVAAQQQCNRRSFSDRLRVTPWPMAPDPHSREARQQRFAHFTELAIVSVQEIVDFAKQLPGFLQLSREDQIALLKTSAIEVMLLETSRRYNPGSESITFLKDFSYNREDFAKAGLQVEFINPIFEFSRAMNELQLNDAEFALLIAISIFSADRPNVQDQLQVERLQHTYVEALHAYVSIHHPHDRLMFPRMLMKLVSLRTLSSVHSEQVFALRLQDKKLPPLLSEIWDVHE
Excerpt: (§3) Luciferase Reporter Assay.

Lxrβ = biological target: T2, Lxrβ (Homo sapiens, UniProt P55055); test: Lxrβ luciferase reporter assay in SN4741 neural cells; type: cell-based, mouse; details: for Lxr activational capacity in combination with 22R-HC: 10 μM acid + 10 μM 22R-HC; for Lxrβ activation, luciferase activity (fold activation): SN4741 cells, 10 μM, 24 h
T2 construct: expressed in transfected cells; host or cells: SN4741 mouse neuronal cell line
T2 sequence (P55055 1-460): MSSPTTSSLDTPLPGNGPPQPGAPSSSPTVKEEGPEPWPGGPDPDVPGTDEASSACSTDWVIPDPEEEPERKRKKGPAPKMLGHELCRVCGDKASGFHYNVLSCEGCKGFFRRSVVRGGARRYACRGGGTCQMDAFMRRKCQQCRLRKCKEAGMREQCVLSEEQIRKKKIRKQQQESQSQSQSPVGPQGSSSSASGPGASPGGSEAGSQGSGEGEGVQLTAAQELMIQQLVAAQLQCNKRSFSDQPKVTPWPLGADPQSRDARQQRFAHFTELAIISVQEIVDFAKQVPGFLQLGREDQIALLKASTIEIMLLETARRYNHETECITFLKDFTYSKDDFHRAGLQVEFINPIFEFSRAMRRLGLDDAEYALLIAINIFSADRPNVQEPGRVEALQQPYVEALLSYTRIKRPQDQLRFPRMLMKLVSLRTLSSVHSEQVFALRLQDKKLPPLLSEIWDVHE
Excerpt: as §3

zebrafish embryos = test: Survival of transgenic zebrafish embryos on compound exposure; type: in vivo
Experimental: as §2

| SMILES | Islet-1 mRNA and protein level (qPCR, western blot) (Islet-1) | Islet-GFP expression (Islet-1; embryos 48 hpf) | Number of Islet1+ cells in cranial nerves (III, IV, V, VII, X) (Islet-1; embryos 48 hpf) | Islet-GFP levels after lxr morpholino injection (Islet-1; lxr MO vs control scrambled MO) | Reduction of neuronal cell death (activated caspase 3) induced by 2 μM 3β,7β-diHCA or 3β-HCA (active caspase 3+ cells; 10 μM) | Effect on active caspase-3+ cells with GGPP (active caspase 3+ cells; 10 μM GGPP, toxic acids at 2 μM) | Concentration giving significant difference from vehicle in active caspase 3+ cells (active caspase 3+ cells) [µM] | Number of active caspase-3+ cells (active caspase 3+ cells) | abca1 expression (abca1) | Lxrα activation, luciferase activity (fold activation) (Lxrα) | Lxr activational capacity in combination with 22R-HC (Lxrβ) | Lxrβ activation, luciferase activity (fold activation) (Lxrβ) | Surviving cells in cultures (active caspase 3+ cells; 10 μM) | Concentration at which toxicity is initiated (active caspase 3+ cells; mouse, primary brain cultures from E11.5 mouse embryos, 3 days) [nM] | Toxic effect on survival of the fish (zebrafish embryos) |
| --- | --- | --- | --- | --- | --- | --- | --- | --- | --- | --- | --- | --- | --- | --- | --- |
| CC(CCC[C@@H](C)[C@H]1CC[C@H]2[C@@H]3[C@H](O)C=C4C[C@@H](O)CC[C@]4(C)[C@H]3CC[C@]12C)C(=O)O (stereo partly drawn) [3β,7α-diHCA, 3β,7α-dihydroxycholest-5-en-26-oic acid] | accompanied by an increase in the level of Islet-1 mRNA and protein | increased Islet-GFP expression | had no significant effect on the number of Islet1+cells | lxr MO injections abolished the in vivo increase in Islet-GFP levels | reduced the neuronal cell death | completely blocked by co-incubation with the Lxr inhibitor GGPP | ≥ 10 | decreased the number of active caspase-3+ cells | enhanced expression of abca1 | have the ability to activate both Lxrs | No additive effect was observed | have the ability to activate both Lxrs | – | – | – |
| CC(CCC[C@@H](C)[C@H]1CC[C@H]2[C@@H]3CC=C4C[C@@H](O)CC[C@]4(C)[C@H]3CC[C@]12C)C(=O)O (stereo partly drawn) [3β-HCA, 3β-hydroxycholest-5-en-26-oic acid] | – | – | – | – | – | – | ≥ 2 | increased the number of active caspase-3+ cells | – | activates Lxr | No additive effect was observed | activates Lxr | no surviving cells were detected | 1000 | had a deleterious toxic effect which impaired the survival of the fish |
